How the values were obtained:
Assay in all cases: in vitro small nucleic acid delivery by lipid-nucleic acid mixture, cell uptake by flow cytometry
Assay type in all cases: cell-based, human
Settings in all cases: lipid 1.25 ug/mL, fluorescently labeled PGY-ssRNA-26, final 100 nM, 9 h incubation, flow cytometry fluorescence
293T cells = system: 293T cells
Description: (§1) Culture the human pancreatic acinar epithelial cancer cell line HPAC, human large cell lung cancer cell line H460, and human embryonic kidney cell line HEK293T (purchased from the Cell Resource Center, Institute of Basic Medicine, Chinese Academy of Medical Sciences) used in the experiments in a 37°C, 5%CO2 incubator. Culture the HPAC cells in DMEM/F12 medium, the H460 cells in RPMI-1640 medium, and the 293T cells in DMEM medium containing 10% fetal bovine serum and 1% antibiotics (penicillin 100 U/mL & streptomycin […]). Culture the cells to the logarithmic growth phase with a cell density of 6 × 10^5/1 mL medium/well; divide the cells into 12-well plates (1 mL medium/well), and incubate at 37°C overnight (12 h), and then conduct subsequent experiments.
(§2) Add 5 µL of nucleic acid and 95 µL of DEPC-treated water to a 2 mL glass tube, mix homogeneously, add a certain amount of lipid monomer, mix thoroughly, heat in a 90°C water bath for 15 min, and then cool naturally to obtain a mixture of nucleic acid and lipid.
(§3) 3. Detection of cell uptake of nucleic acids delivered by lipids inside cells by means of flow cytometry (CFlow) • 1) Main experimental instruments and equipment: 10 cm cell culture dishes, 12-well cell culture plates, pipettes, transfer tubes, optical microscope, flow cytometer CytoFLEX instrument (purchased from Beckman, USA) • 2) Main experimental reagents: Model establishment and transfection: artificially synthesized lipid monomers and nucleic acids as shown in the table • 3) Culture the human pancreatic acinar epithelial cancer cell line HPAC cells, human large cell lung cancer cell line H460 cells, and human embryonic kidney cell line HEK293T cells used in the experiment to the logarithmic growth phase, and then divide them into 12-well plates at a cell density of 6×10^5/mL culture medium/well; incubate the 12-well plates at 37°C overnight (12 h), and then conduct subsequent experiments. • 4) The experimental groups are as follows: • a) Blank group: refers to untreated cells, and this group serves as a blank control group. • b) Free uptake group: directly add 5 µL of fluorescently labeled nucleic acid solution (stock concentration 20 µM), and this group serves as the negative control group. • c) Lipid-nucleic acid mixture treatment group: add the mixture of lipids and fluorescently labeled nucleic acids prepared in step 2 to the cells, and mix homogeneously. The final concentration of nucleic acids is 100 nM. • 5) After incubating with cells for 9 h, wash the cells three times with PBS, resuspend the cells with PBS (self-prepared), and use a flow cytometer CytoFLEX instrument (purchased from Beckman, USA) to detect the fluorescence intensity of the cells in the sample wells.

HPAC cells = system: HPAC cells
Description: as §1, §2, §3

H460 cells = system: H460 cells
Description: as §1, §2, §3

SMILES | Lipid delivery group (1.25 ug/mL) (293T cells) | Lipid delivery group (1.25 ug/mL) (HPAC cells) | Lipid delivery group (1.25 ug/mL) (H460 cells)
CCCCCCCCCCCCCCCCCCC[C@@H](O)[C@@H](N)CO [Sphingosine (d22:0), (2S,3R)-2-aminodocosane-1,3-diol] | 22.99% | 39.08% | 24.32%
CCCCCCCCCCCCCCCCCCCC[C@@H](O)[C@@H](N)CO [Sphingosine (d23:0), (2S,3R)-2-aminotricosane-1,3-diol] | 98.16% | 78.91% | 98.65%
CCCCCCCCCCCCCCCCCC/C=C/[C@@H](O)[C@@H](N)CO [Sphingosine (d23:1), (2S,3R,E)-2-aminotricos-4-ene-1,3-diol] | 34.51% | 7.93% | 44.11%
CCCCCCCCCCCCCCCCCCCCC[C@@H](O)[C@@H](N)CO [Sphingosine (d24:0), (2S,3R)-2-aminotetracosane-1,3-diol] | 96.77% | 96.61% | 98.13%
CCCCCCCCCCCCCCCCCCC/C=C/[C@@H](O)[C@@H](N)CO [Sphingosine (d24:1), (2S,3R,E)-2-aminotetracos-4-ene-1,3-diol] | 63.97% | 16.65% | 79.66%
CCCCCCCCCCCCCCCCCCCCCC[C@@H](O)[C@@H](N)CO [Sphingosine (d25:0), (2S,3R)-2-aminopentacosane-1,3-diol] | 97.76% | 96.17% | 99.26%
CCCCCCCCCCCCCCCCCCCC/C=C/[C@@H](O)[C@@H](N)CO [Sphingosine (d25:1), (2S,3R,E)-2-aminopentacos-4-ene-1,3-diol] | 78.12% | 89.70% | 78.43%
CCCCCCCCCCCCCCCCCCCCCCC[C@@H](O)[C@@H](N)CO [Sphingosine (d26:0), (2S,3R)-2-aminohexacosane-1,3-diol] | 95.55% | 97.75% | 95.2%
CCCCCCCCCCCCCCCCCCCCC/C=C/[C@@H](O)[C@@H](N)CO [Sphingosine (d26:1), (2S,3R,E)-2-aminohexacos-4-ene-1,3-diol] | 87.97% | 96.03% | 85.87%
CCCCCCCCCCCCCCCCCCCCCCCC[C@@H](O)[C@@H](N)CO [Sphingosine (d27:0), (2S,3R)-2-aminoheptacosane-1,3-diol] | 91.06% | 97.35% | 97.57%
CCCCCCCCCCCCCCCCCCCCCC/C=C/[C@@H](O)[C@@H](N)CO [Sphingosine (d27:1), (2S,3R,E)-2-aminoheptacos-4-ene-1,3-diol] | 92.77% | 99.42% | 95.74%
CCCCCCCCCCCCCCCCCCCCCCCCC[C@@H](O)[C@@H](N)CO [Sphingosine (d28:0), (2S,3R)-2-aminooctacosane-1,3-diol] | 96.93% | 94.40% | 98.52%
CCCCCCCCCCCCCCCCCCCCCCC/C=C/[C@@H](O)[C@@H](N)CO [Sphingosine (d28:1), (2S,3R,E)-2-aminooctacos-4-ene-1,3-diol] | 86.5% | 96.66% | 84.15%
CCCCCCCCCCCCCCCCCCCCCCCCCC[C@@H](O)[C@@H](N)CO [Sphingosine (d29:0), (2S,3R)-2-aminononacosane-1,3-diol] | 72.18% | 83.57% | 65.81%
CCCCCCCCCCCCCCCCCCCCCCCC/C=C/[C@@H](O)[C@@H](N)CO [Sphingosine (d29:1), (2S,3R,E)-2-aminononacos-4-ene-1,3-diol] | 32.74% | 23.36% | 62.37%
CCCCCCCCCCCCCCCCCCCCCCCCCCC[C@@H](O)[C@@H](N)CO [Sphingosine (d30:0), (2S,3R)-2-aminotriacontane-1,3-diol] | 83.38% | 93.63% | 78.84%
CCCCCCCCCCCCCCCCCCCCCCCCC/C=C/[C@@H](O)[C@@H](N)CO [Sphingosine (d30:1), (2S,3R,E)-2-aminotriacont-4-ene-1,3-diol] | 95.79% | 69.34% | 54.83%
CCCCCCCCCCCCCCCCCCCCCCCCCCCC[C@@H](O)[C@@H](N)CO [Sphingosine (d31:0), (2S,3R)-2-aminohentriacontane-1,3-diol] | 97.4% | 70.5% | 68.16%
CCCCCCCCCCCCCCCCCCCCCCCCCC/C=C/[C@@H](O)[C@@H](N)CO [Sphingosine (d31:1), (2S,3R,E)-2-aminohentriacont-4-ene-1,3-diol] | 75.77% | 60.61% | 82.66%
CCCCCCCCCCCCCCCCCCCCCCCCCCCCC[C@@H](O)[C@@H](N)CO [Sphingosine (d32:0), (2S,3R)-2-aminodotriacontane-1,3-diol] | 34.02% | 70.16% | 46.19%
CCCCCCCCCCCCCCCCCCCCCCCCCCC/C=C/[C@@H](O)[C@@H](N)CO [Sphingosine (d32:1), (2S,3R,E)-2-aminodotriacont-4-ene-1,3-diol] | 86.77% | 87.38% | 62.18%
CCCCCCCCCCCCCCCCCCCCCCCCCCCCCC[C@@H](O)[C@@H](N)CO [Sphingosine (d33:0), (2S,3R)-2-aminotritriacontane-1,3-diol] | 61.39% | 2.48% | 72.21%
CCCCCCCCCCCCCCCCCCCCCCCCCCCC/C=C/[C@@H](O)[C@@H](N)CO [Sphingosine (d33:1), (2S,3R,E)-2-aminotritriacont-4-ene-1,3-diol] | 40.07% | 45.88% | 67.01%
CCCCCCCCCCCCCCCCCCCCCCCCCCCCCCC[C@@H](O)[C@@H](N)CO [Sphingosine (d34:0), (2S,3R)-2-aminotetratriacontane-1,3-diol] | 5% | 0.55% | 24.56%
CCCCCCCCCCCCCCCCCCCCCCCCCCCCC/C=C/[C@@H](O)[C@@H](N)CO [Sphingosine (d34:1), (2S,3R,E)-2-aminotetratriacont-4-ene-1,3-diol] | 38.31% | 2.95% | 66.64%
CCCCCCCCCCCCCCCCCCCCCCCCCCCCCCCC[C@@H](O)[C@@H](N)CO [Sphingosine (d35:0), (2S,3R)-2-aminopentatriacontane-1,3-diol] | 43.03% | 51.46% | 69.95%
CCCCCCCCCCCCCCCCCCCCCCCCCCCCCC/C=C/[C@@H](O)[C@@H](N)CO [Sphingosine (d35:1), (2S,3R,E)-2-aminopentatriacont-4-ene-1,3-diol] | 50.79% | 53.75% | 64.66%
CCCCCCCCCCCCCCCCCCCCCCCCCCCCCCCCC[C@@H](O)[C@@H](N)CO [Sphingosine (d36:0), (2S,3R)-2-aminohexatriacontane-1,3-diol] | 40.66% | 58.22% | 62.71%
CCCCCCCCCCCCCCCCCCCCCCCCCCCCCCC/C=C/[C@@H](O)[C@@H](N)CO [Sphingosine (d36:1), (2S,3R,E)-2-aminohexatriacont-4-ene-1,3-diol] | 25.23% | 48.77% | 48.37%

From EP4591884A1, “LIPID COMPOUND FOR NUCLEIC ACID DELIVERY, AND RELATED USE AND MEDICAMENT COMPRISING SAME” (Beijing Baishihekang Pharmaceutical Technology (Bsjpharma) …, priority 2022, dated 2024)
